Test results as given in patent US20100226919A1, “Antitumoral Treatments” (Pharma Mar, S.A., priority 2007, published 2010).
Like-named read-outs stand apart in the source and are kept apart here.

Experiments:
H460 cells = conditions: read-out: IC50 (50% cell growth inhibition); H460, 72 h exposure; resistant cell lines
Text: (§1) Nine human NSCLC cell lines that were characterized for EGFR, Ras, and p53 gene expression and sensitivity to a variety of antitumor agents (paclitaxel, premetrexed, erlotinib, etc.) were used as models to examine the cell sensitivity to PM02734 trifluoroacetate salt. These NSCLC cell lines are the following: H322, A549, H661, H1299, H1975 with L858R and T790M EGFR double mutation, H358, H460, H1650 with L858R EGFR mutation, and H3255 with […]. […] H3255 cell line is a gift from Dr. Pasi A. Jänne (Dana-Farber Cancer Institute, Boston Mass.).
(§2) Exponentially growing cells (1×10^5/ml) were plated in 96-well plates and allowed to attach overnight. Cells were exposed to various concentrations of PM02734 trifluoroacetate salt at 37° C. for 72 hours.
(§3) H322, A549, H1299 and H460 cells were plated in 96-well plates as described above. […] Enzyme Regul. […] The synergistic effects (CI index) were analyzed by software CalcuSyn.

A549 cells = conditions: read-out: IC50 (50% cell growth inhibition); A549, 72 h exposure; range given for four highly sensitive cell lines
Text: as §1, §2, §3

H322 cells [1] = conditions: read-out: IC50 (50% cell growth inhibition); H322, 72 h exposure; range given for four highly sensitive cell lines
Text: as §1, §2, §3

H1299 cells = conditions: read-out: IC50 (50% cell growth inhibition); H1299, 72 h exposure; range given for two cell lines of intermediate sensitivity
Text: as §1, §2, §3

[2] = tested on: human A549 NSCLC cell line; assay: A549 subcutaneous xenograft model in nude mice; format: in vivo; conditions: PM02734 0.1 mg/kg i.v. 3 times per week for 2 weeks; erlotinib 50 mg/kg p.o. 5 times per week for 2 weeks; p<0.001
Protocol: PM02734 was administered in its trifluoroacetate salt using water for injection as vehicle. Erlotinib was administered using sterile water as vehicle.
Nude mice (NUR-NU-F-M, female, 5-6 weeks old, Taconic Farm, Germantown N.Y.) were subcutaneously implanted with the human A549 NSCLC cell line (4.5×10^6 cells/mouse). Seven days later, mice were randomly divided into 4 groups with 5 mice per group. One group of mice received the combination treatment (PM02734: 0.1 mg/kg×3 times per week (on days 1, 3, and 5) for 2 weeks, i.v.; erlotinib: 50 mg/kg×5 times per week (on days 1, 2, 3, 4, and 5) for 2 weeks, p.o.). In this group erlotinib was given first followed two hours later by the administration of PM02734. The other groups were treated with PM02734 alone (0.1 mg/kg×3 times per week (on days 1, 3, and 5) for 2 weeks, i.v.), erlotinib alone (50 mg/kg×5 times per week (on days 1, 2, 3, 4, and 5) for 2 weeks, p.o.) or without treatment. Tumor size was measured twice a week. Tumor volume was calculated using the following equation: Tumor volume (mm^3)=0.5×longer diameter×(shorter diameter)^2 in millimeter. The experiment was terminated when ≧50% mice had tumors larger than 15 mm (i.e., the longer diameter>15 mm).

H322 cells [3] = assay: Cell-cycle progression and apoptosis by propidium iodide FACS analysis; format: cell-based, human; conditions: H322, 0.5 μM, 0, 3, 6 and 24 hours
Protocol: H322 cells were plated in a 6-well plate and incubated with RPMI1640 medium with 10% fetal bovine serum at 37° C. overnight. […] At the indicated time point, cells were harvested by trypsinization and fixed with cold 75% ethanol at 4° C. overnight. Cells were incubated with 1 μg/ml of propidium iodide and 5 μg/ml of RNase I at room temperature for 3 hours. The cell-cycle distribution and apoptotic cells (Sub-G0/G1) were measured by FACS analysis (BD Biosciences, San Joes, Calif.).

H358 cells = conditions: read-out: IC50 (50% cell growth inhibition); H358, 72 h exposure; resistant cell lines
Text: as §1, §2

H1975 cells = conditions: read-out: IC50 (50% cell growth inhibition); H1975 (double EGFR mutant), 72 h exposure; range given for two cell lines of intermediate sensitivity
Text: as §1, §2

H1650 cells = conditions: read-out: IC50 (50% cell growth inhibition); H1650 (EGFR mutant), 72 h exposure; resistant cell lines
Text: as §1, §2

H3255 cells [4] = conditions: read-out: IC50 (50% cell growth inhibition); H3255 (EGFR mutant), 72 h exposure; range given for four highly sensitive cell lines
Text: as §1, §2

H661 cells = conditions: read-out: IC50 (50% cell growth inhibition); H661, 72 h exposure; range given for four highly sensitive cell lines
Text: as §1, §2

H322 cells [5] = conditions: from Ling et al., Mol Pharmacol 2007; cited from earlier work
H322 cells [6] = conditions: only two of the nine cell lines sensitive; cited from earlier work
H3255 cells [7] = conditions: only two of the nine cell lines sensitive; cited from earlier work
mouse leukemia (P388) = conditions: cited from earlier work
[8] = tested on: non-small cell lung (A549); conditions: cited from earlier work
colon (HT-29) = conditions: cited from earlier work

## C/C=C1\NC(=O)[C@H](Cc2ccccc2)NC(=O)[C@@H](C(C)C)NC(=O)[C@@H]([C@@H](C)CC)NC(=O)[C@H](NC(=O)[C@H](NC(=O)[C@H](CCCN)NC(=O)[C@H]2CCCN2C(=O)[C@H](NC(=O)[C@@H](NC(=O)[C@@H](NC(=O)[C@H](NC(=O)CC[C@@H](C)CC)C(C)C)[C@@H](C)O)C(C)C)C(C)C)[C@@H](C)CC)[C@@H](C)OC(=O)[C@H](C(C)C)NC1=O [PM02734, (4S)-MeHex-D-Val-L-Thr-L-Val-D-Val-D-Pro-L-Orn-D-allo-Ile-cyclo(D-allo-Thr-D-allo-Ile-D-Val-L-Phe-Z-Dhb-L-Val)]
H460 cells
  IC50: > 5000 nM
A549 cells
  IC50: 300 to 1250 nM
H322 cells [1]
  IC50: 300 to 1250 nM
H1299 cells
  IC50: 2000 to 2800 nM
[2]
  % treated vs. control tumor volume ratio (% T/C): 74%
H322 cells [3]
  apoptotic cells (Sub-G0/G1): apoptotic cell death in a time-dependent manner
  effect on cell-cycle progression: cell cycle arrest at S-phase
H358 cells
  IC50: > 5000 nM
H1975 cells
  IC50: 2000 to 2800 nM
H1650 cells
  IC50: > 5000 nM
H3255 cells [4]
  IC50: 300 to 1250 nM
H661 cells
  IC50: 300 to 1250 nM

## C#Cc1cccc(Nc2ncnc3cc(OCCOC)c(OCCOC)cc23)c1 [erlotinib, Erlotinib]
H322 cells [5]
  effect on cell-cycle progression: G1/S phase arrest
H322 cells [6]
  cell sensitivity to erlotinib: sensitive
H3255 cells [7]
  cell sensitivity to erlotinib: sensitive

## Kahalalide F
Mouse leukemia (P388)
  in vitro antitumor activity: micromolar activity
[8]
  in vitro antitumor activity: micromolar activity
Colon (HT-29)
  in vitro antitumor activity: micromolar activity
